# pIC50: −log10 of the molar value. Active and inactive are the calls of the source. No cut-off for these calls is given here.
# Assays:
# [1] = tested on: MV4-11; assay: Antiproliferative activity against human MV4-11 cells assessed as cell viability incubated for 72 hrs by CCK-8 assay; format: functional, cell-based; conditions: MV4-11, 72 h
# [2] = tested on: MV4-11; assay: HEMTAC activity against HSP90/WEE1 in human MV4-11 cells assessed as induction of WEE1 degradation at 10 uM incubated for 12 hrs by Western blotting analysis; format: cell-based
# [3] = tested on: MV4-11; assay: Induction of cell cycle arrest in human MV4-11 cells assessed as accumulation of cells at G2/M phase incubated for 72 hrs by PI staining based flow cytometry; format: functional; conditions: dose 30.0 µM
# [4] = tested on: Primary acute myeloid leukemic cell; assay: Antitumor activity against patient derived human Primary acute myeloid leukemic cell xenografted in female NOD/SCID mouse assessed as decrease in huCD45+ cells in bone marrow at 5 mg/kg administered via tail vein and measured after 4 weeks in presence of AZD1775 by flow cytometric analysis; format: functional, organism-based
# [5] = tested on: Primary acute myeloid leukemic cell; assay: Antitumor activity against patient derived human Primary acute myeloid leukemic cell xenografted in female NOD/SCID mouse assessed as decrease in huCD45+ cells in bone marrow at 5 mg/kg administered via tail vein and measured after 4 weeks by flow cytometric analysis; format: functional, organism-based
# [6] = tested on: Primary acute myeloid leukemic cell; assay: Antitumor activity against patient derived human Primary acute myeloid leukemic cell xenografted in female NOD/SCID mouse assessed as decrease in huCD45+ cells in bone marrow at 3 mg/kg administered via tail vein in presence of AZD1775 and measured after 4 weeks by flow cytometric analysis; format: functional, organism-based
# [7] = molecular target: Heat shock protein HSP 90-alpha (Homo sapiens, UniProt P07900); assay: Inhibition of N-terminal HSP90alpha (unknown origin) ATPase activity incubated for 3 hrs by fluorescence polarization assay
# [8] = tested on: MV4-11; assay: HEMTAC activity at HSP90/WEE1 in human MV4-11 cells assessed as induction of WEE1 degradation at 0.1 uM incubated for 12 hrs by Western blotting analysis; format: cell-based
# [9] = tested on: MV4-11; assay: HEMTAC activity against HSP90/AKT in human MV4-11 cells assessed as induction of AKT degradation at 0.1 uM incubated for 12 hrs by Western blotting analysis; format: cell-based
# [10] = Toxicity in female NOD/SCID mouse xenografted with patient derived human Primary acute myeloid leukemic cell assessed as lung damage at 3 mg/kg administered via tail vein by H and E staining based optical microscopic analysis; format: organism-based; conditions: in vivo, iv
# [11] = Toxicity in female NOD/SCID mouse xenografted with patient derived human Primary acute myeloid leukemic cell assessed as liver damage at 3 mg/kg administered via tail vein by H and E staining based optical microscopic analysis; format: organism-based; conditions: in vivo, iv
# [12] = Toxicity in female NOD/SCID mouse xenografted with patient derived human Primary acute myeloid leukemic cell assessed as spleen damage at 3 mg/kg administered via tail vein by H and E staining based optical microscopic analysis; format: organism-based; conditions: in vivo, iv
# [13] = Cytotoxicity against human PBMC cells assessed as reduction in cell viability up to 1000 nM incubated for 72 hrs by CCK-8 assay; format: toxicity, cell-based; conditions: 1 µM
# [14] = Toxicity in male BALB/C mouse assessed as myelosuppression by measuring neutrophil level at 10 mg/kg administered via tail vein and measured on day 3; format: organism-based; conditions: in vivo, iv, 72 h, time 3 day
# [15] = Toxicity in male BALB/C mouse assessed as myelosuppression by measuring platelet level at 10 mg/kg administered via tail vein and measured on day 3; format: organism-based; conditions: in vivo, iv, 72 h, time 3 day
# [16] = Toxicity in female NOD/SCID mouse xenografted with patient derived human Primary acute myeloid leukemic cell assessed as kidney damage at 10 mg/kg administered via tail vein by H and E staining based optical microscopic analysis; format: organism-based; conditions: in vivo, iv
# [17] = tested on: MV4-11; assay: Induction of cell cycle arrest in human MV4-11 cells assessed as accumulation of cells at G2/M phase at 30 nM incubated for 72 hrs by PI staining based flow cytometry; format: functional
# [18] = molecular target: Cyclin-dependent kinase 1 (Homo sapiens) (UniProt P06493); assay: Inhibition of CDK1 phosphorylation in human MV4-11 cells; format: cell-based
# [19] = Toxicity in male BALB/C mouse assessed as myelosuppression by measuring leukocytes level at 10 mg/kg administered via tail vein and measured on day 3; format: organism-based; conditions: in vivo, iv, 72 h, time 3 day
# [20] = tested on: MV4-11; assay: Upregulation of WEE1 mRNA expression in human MV4-11 cells incubated for 12 hrs by qRT-PCR analysis; format: functional, cell-based; conditions: dose 1-10 µM
# [21] = tested on: Primary acute myeloid leukemic cell; assay: Antitumor activity against patient derived human Primary acute myeloid leukemic cell xenografted in female NOD/SCID mouse assessed as decrease in huCD45+ cells in spleen at 3 mg/kg administered via tail vein and measured after 4 weeks by flow cytometric analysis; format: functional, organism-based
# [22] = tested on: Primary acute myeloid leukemic cell; assay: Antitumor activity against patient derived human Primary acute myeloid leukemic cell xenografted in female NOD/SCID mouse assessed as reduction in splenomegaly at 3 mg/kg administered via tail vein and measured after 4 weeks; format: functional, organism-based
# [23] = Toxicity in female NOD/SCID mouse xenografted with patient derived human Primary acute myeloid leukemic cell assessed as heart damage at 3 mg/kg administered via tail vein by H and E staining based optical microscopic analysis; format: organism-based; conditions: in vivo, iv
# [24] = Toxicity in female NOD/SCID mouse xenografted with patient derived human Primary acute myeloid leukemic cell assessed as increase in body weight at 3 mg/kg administered via tail vein and measured after 4 weeks; format: organism-based; conditions: in vivo, iv, 672 h
# Chain of Cyclin-dependent kinase 1 (Homo sapiens) (P06493 whole entry, looked up): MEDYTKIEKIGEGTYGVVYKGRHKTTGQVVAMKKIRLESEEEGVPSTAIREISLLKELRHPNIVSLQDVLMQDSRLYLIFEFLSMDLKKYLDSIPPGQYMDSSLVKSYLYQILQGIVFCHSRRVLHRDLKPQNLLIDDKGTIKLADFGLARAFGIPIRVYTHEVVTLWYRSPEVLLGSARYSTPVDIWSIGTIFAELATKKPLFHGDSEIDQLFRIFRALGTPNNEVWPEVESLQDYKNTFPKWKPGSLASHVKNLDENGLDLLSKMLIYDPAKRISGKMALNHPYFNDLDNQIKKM
structure (smiles),measurement,setting,value
C=CCn1c(=O)c2cnc(Nc3ccc(N4CCN(CCCCCNC(=O)c5noc(-c6cc(C(C)C)c(O)cc6O)c5-c5ccc(CN6CCOCC6)cc5)CC4)cc3)nc2n1-c1cccc(C(C)(C)O)n1,pIC50,[1],7.62
same,Activity,[2],Active
CCNC(=O)c1noc(-c2cc(C(C)C)c(O)cc2O)c1-c1ccc(CN2CCOCC2)cc1 [LUMINESPIB],pIC50,[1],8.70
same,Activity,[3],Active
CC(C)c1cc(-c2n[nH]c(=O)n2-c2ccc3c(ccn3C)c2)c(O)cc1O [GANETESPIB],pIC50,[1],8.82
same,Activity,[4],inactive
same,Activity,[3],Active
same,Activity,[5],inactive
same,Activity,[6],inactive
C=CCn1c(=O)c2cnc(Nc3ccc(N4CCN(CCCCNC(=O)CCC(=O)Nc5ccc6c(c5)CCN6C(=O)c5cc(C(C)C)c(O)cc5O)CC4)cc3)nc2n1-c1cccc(C(C)(C)O)n1,pIC50,[1],6.82
same,Activity,[2],Active
C=CCn1c(=O)c2cnc(Nc3ccc(N4CCN(CCCNC(=O)CCC(=O)Nc5ccc6c(c5)CCN6C(=O)c5cc(C(C)C)c(O)cc5O)CC4)cc3)nc2n1-c1cccc(C(C)(C)O)n1,pIC50,[1],7.32
same,pIC50,[7],7.73
same,Activity,[2],Active
C=CCn1c(=O)c2cnc(Nc3ccc(N4CCN(CCCCNC(=O)CN5CCN(Cc6ccc(-n7c(C(=O)NCC)nnc7-c7cc(C(C)C)c(O)cc7O)cc6)CC5)CC4)cc3)nc2n1-c1cccc(C(C)(C)O)n1,Activity,[8],Active
same,Activity,[9],Minimal_effect
same,Activity,[10],Non-toxic
same,Activity,[11],Non-toxic
same,Activity,[12],Non-toxic
same,Activity,[13],Non-toxic
same,Activity,[14],Non-toxic
same,Activity,[15],Non-toxic
same,Activity,[3],Dose-dependent-effect
same,Activity,[16],Non-toxic
same,pIC50,[7],7.78
same,Activity,[17],Active
same,inhibition,[18],Active
same,Activity,[19],Non-toxic
same,Activity,[20],Active
same,Activity,[21],Active
same,Activity,[22],Active
same,Activity,[2],Active
same,Activity,[23],Non-toxic
same,Activity,[24],Non-toxic
C=CCn1c(=O)c2cnc(Nc3ccc(N4CCN(CCNC(=O)c5noc(-c6cc(C(C)C)c(O)cc6O)c5-c5ccc(CN6CCOCC6)cc5)CC4)cc3)nc2n1-c1cccc(C(C)(C)O)n1,pIC50,[1],7.00
same,Activity,[2],Active
C=CCn1c(=O)c2cnc(Nc3ccc(N4CCN(CCNC(=O)CCC(=O)Nc5ccc6c(c5)CCN6C(=O)c5cc(C(C)C)c(O)cc5O)CC4)cc3)nc2n1-c1cccc(C(C)(C)O)n1,pIC50,[1],7.88
same,Activity,[2],Active
